Data reported in article PMC9820592, “Novel Chiral Ru(II) Complexes as Potential c-myc G-quadruplex DNA Stabilizers Inducing DNA Damage to Suppress Triple-Negative Breast Cancer Progression” (International Journal of Molecular Sciences, 2022).

Assays:
[1] = test system: MDA-MB-231 cells; assay: MTT assay, MDA-MB-231 cells; assay type: cell-based, human; settings: 72 h, read-out: Inhibitory Effect (IC50/μM) MDA-MB-231
Protocol: (§1) Liver cancer HepG2 cells, lung cancer A549 cells, breast cancer MCF-7 and MDA-MB-231 cells, human nasopharyngeal carcinoma CNE-1 cells, and human immortalized keratinocyte HaCaT cells were seeded in 96-well plates (5 × 10^3 cells per well) and cultured at 37 °C and 5% CO2 for 24 h. Cells were treated with different concentrations of the complexes (0, 1.5625, 3.125, 6.25, 12.5, 25, 50, and 100 µM) for 72 h. After adding 20 µL MTT (5 mg/mL) solution to each well, the cells were incubated for 4 h, and then 150 µL DMSO was added to each well. The optical density of each well was detected by a microplate reader at a wavelength of 570 nm. The cell survival rate (%) = A(experimental group)/A(control group) × 100%, and the IC50 value was analyzed and calculated based on the survival rate.

[2] = test system: HepG2 cells; assay: MTT assay, HepG2 cells; assay type: cell-based, human; settings: 72 h, read-out: Inhibitory Effect (IC50/μM) HepG2
Protocol: as §1

[3] = test system: c-myc G-quadruplex DNA; assay: FRET melting assay; assay type: binding, human; settings: free DNA Tm 59.5 °C
Protocol: Carboxy fluorescein (FAM) and 6-carboxytetramethyl rhodamine (TAMRA) double fluorescent-labeled c-myc G4 DNA (5′−FAM-TGAGGGTGGGAGGGGTAA-TAMRA−3′) were heated to 95 °C in Tris-HCl-KCl buffer (containing 10 mM Tris-HCl, 100 mM KCl, pH 7.4) for 5 min and slowly cooled to room temperature. To ds26, double-stranded DNA ([…]) is a competitive binder, research Λ/Δ−3 with c-myc G4 selectivity binding ability of DNA. A Bio-Radiq5 real-time PCR detection system was used to measure the fluorescence melting curve. Approximately 1 μM (5 μL) FPU22T was mixed with a series of 5 μL compound solutions of different concentrations, and 15 μLTris-HCl-KCl buffer was added to the PCR 8 tube to obtain a total volume of 25 μL. A real-time fluorescence quantitative PCR instrument was used, and incubation was performed at 30 °C for 30 min. The program temperature range was set to 30–95 °C at a temperature interval of 1 °C, and recording was performed after balancing for 30 s to detect the fluorescence value of FAM. The conditions of the reaction system were similar to those of the FRET melting point test except that different concentrations of ds26 were added.

[4] = test system: c-myc G-quadruplex DNA; assay: PCR-stop assay; assay type: biochemical, human; settings: Taq polymerase
Protocol: In this study, c-myc G4 DNA and its reverse complementary sequence c-myc rev were heated to 95 °C for 5 min, allowed to cool to room temperature, and incubated at 4 °C overnight. The system was supplemented with dNTPs and Taq polymerase for PCR amplification; heated at 95 °C for 3 min, 94 °C for 30 s, and 58 °C for 30 s, with an extension at 72 °C for 30 s (30 cycles); and analyzed by 15% nondenatured polyacrylamide gel electrophoresis and silver staining.

[5] = test system: MDA-MB-231 cells; assay: Wound-healing assay; assay type: cell-based, human
Protocol: MDA-MB-231 cells (1 × 10^5 cells/well) were inoculated in a 6-well cell culture plate marked on the back until a single layer of cells covered more than 90% of the bottom of the culture plate, and a 200 µL pipette was used to scratch the culture. Different concentrations of the complexes (0, 2.5, 5, and 10 µM) were applied for 72 h. Migrating cells in the same field of view were observed and recorded every 24 h, and the average cell migration rate was calculated in three fields for every group.

[6] = test system: MDA-MB-231 cells; assay: Flow cytometry, apoptosis (Annexin V-FITC/PI); assay type: cell-based, human; settings: 72 h, control 2.77%
Protocol: MDA-MB-231 cells were treated with different concentrations of the complexes (0, 10, 20, and 40 μM) for 72 h, then collected and stained with an Annexin V-FITC/PI Apoptosis Detection Kit I (BD, 556547). The MDA-MB-231 cells were fixed with 70% ethanol at 4 °C for 30 min, and then collected and stained with PI/RNase Staining Buffer (BD, 550825). The cells were analyzed by flow cytometry (Beckman, CytoFLEX). All experiments were repeated three times.

[7] = test system: MDA-MB-231 cells; assay: Comet assay; assay type: cell-based, human; settings: 5 and 10 μM
Protocol: DNA damage was detected by single-cell gel electrophoresis by using the Comet assay kit (Trevigen). MDA-MB-231 cells were added to a culture dish containing the medium. After treatment with different concentrations of the complexes (0, 5, and 10 μM) at 37 °C for 72 h, the cells were collected and washed with PBS three times. A solution of the cell suspension and melted low-melting-point agarose gel was mixed at a volume ratio of 1:7, and the equilateral sample was immediately transferred to a Comet Slide TM slide. The slides were washed twice with PBS, placed into an electrophoresis tank containing comet electrophoresis solution, and electrophoresed at 25 V for 30 min. After electrophoresis, the slides were washed twice with PBS. Finally, the cells were stained with EB and observed under a fluorescence microscope. Cells were randomly selected from each slide to take photos, and the tail moment was analyzed.

[8] = test system: MDA-MB-231 cells; assay: Zebrafish xenograft breast cancer model; assay type: in vivo; settings: 2.5, 5, and 10 μM, 72 h
Protocol: (§2) The zebrafish model of transplanted breast cancer was constructed in accordance with the methods in the literature. Juvenile 48 h old breast cancer model zebrafish were placed in 48-well plates (n = 10), and 0.2 mL aquaculture water without or with Δ−3 (0, 2.5, 5, and 10 μM) was added for culture. Images were captured every 24 h using a fluorescence microscope to study the inhibitory effect of Δ−3 on zebrafish with breast cancer. In addition, the mean number of sprout and mean length of sprout in subintestinal vessels (SIVs) were analyzed by ImageProPlus software. The ethical protocols for the in vivo research on zebrafish complied with relevant laws.

[9] = test system: HUVECs; assay: Tube formation assay; assay type: cell-based, human; settings: 10 μM, 6 h, VEGF 200 ng/mL
Protocol: Dissolving matrigel (4 °C, 24 h) was used to coat prechilled 96-well plates (50 μL/well, 37 °C, for at least 60 min). Then, the unsolid fluid was removed, and HUVECs at the density of 3 × 10^4 were cultured in DMEM with VEGF (200 ng/mL) containing the different concentrations of Δ−3 (0, 5, and 10 μM) for 6 h.

[10] = test system: subintestinal vessels (SIVs); assay: Angiogenic assay in Tg (fli1: EGFP) zebrafish; assay type: in vivo; settings: compared with control group
Protocol: as §2

Q: How did the IC50 [1] turn out when Δ-[Ru(bpy)2(3-NBEDPPZ)](ClO4)2 [Δ−3] was run?
A: 25.5 µM

Q: And the IC50 [2]?
A: 37.8 ± 0.6 µM

Q: What about the ΔTm ([3]; complex 0.5 μM) of the same substance?
A: approximately 3.5 °C

Q: What about the ΔTm ([3]; complex 1.0 μM) of the same substance?
A: ~7.2 °C

Q: And the “minimum concentration necessary for effective inhibition (PCR products)” value [4]?
A: 2.5 µM

Q: And the “migration rate (wound healing)” value ([5]; 10 μM, different treatment times)?
A: less than half that of the control

Q: And the “migration of cells (wound healing)” value ([5]; 2.5 and 5 μM)?
A: inhibited inconspicuously

Q: And the “proportion of apoptotic cells” value ([6]; 10 μM)?
A: 5.39%

Q: And the “proportion of apoptotic cells” value ([6]; 20 μM)?
A: 7.95%

Q: And the “proportion of apoptotic cells” value ([6]; 40 μM)?
A: 16.27%

Q: What about the “DNA damage (comet appearance)” value [7] of the same substance?
A: cometary shapes appeared

Q: And the “number of MDA-MB-231 cells in zebrafish” value [8]?
A: significantly lower than that of the control

Q: What about the “tubular structures of HUVECs on Matrigel” value [9] of the same substance?
A: sparse and incomplete

Q: What about the “number and length of SIVs” value [10] of the same substance?
A: significantly decreased
